Experiments:
[1] = target: T1, human D3 dopamine receptor (Homo sapiens, UniProt P35462); experiment: Radioligand binding ([3H]-spiperone) to cloned human D3 receptor, HEK-293 EBNA cell membranes; details: 0.5 nM [3H]-spiperone, 1 h at RT, Cheng-Prusoff
T1 construct: expressed in transfected cells; host or cells: HEK-293 EBNA cells, transient transfection; membrane preparation
Experimental: The ability of the compounds to bind to the 5-HT2A, D3 and D2 receptors was determined using radioligand binding to cloned receptors selectively expressed in HEK-293 EBNA cells.
(§1) Membrane Preparation for Human D2, Human D3 and Human 5-HT2A Receptors
(§2) HEK-293 EBNA cells were transiently transfected with expression plasmids encoding for the human D2 or D3 dopamine- or for the human 5-HT2A serotonin receptor, respectively. The cells were harvested 48 h post-transfection, washed three times with cold PBS and stored at −80° C. prior to use. The pellet was suspended in cold 50 mM Tris-HCl buffer containing 10 mM EDTA (pH 7.4) and homogenized with a Polytron (Kinematica AG, Basel, Switzerland) for 20-30 sec at 12.000 rpm. After centrifugation at 48.000×g for 30 min at 4° C., the pellet was resuspended in cold 10 mM Tris-HCl buffer containing 0.1 mM EDTA (pH 7.4), homogenized, and centrifuged as above. This pellet was further resuspended in a smaller volume of ice cold 10 mM Tris-HCl buffer containing 0.1 mM EDTA (pH 7.4) and homogenized with a Polytron for 20-30 sec at 12.000 rpm. The protein content of this homogenate was determined with the Bio-Rad (Bradford) Protein Assay (Biorad Laboratories GmbH, München, Germany) according to the instructions of the manufacturer using gamma globulin as the standard. This homogenate was stored at −80° C. in aliquots and thawed immediately prior to use.
(§3) Radioligand Binding Assay Conditions
(§4) Aliquots of membrane preparations were thawed at RT, resuspended in assay buffer (D2, D3: 50 mM Tris-HCl, 120 mM NaCl, 5 mM MgCl2, 1 mM EDTA, 5 mM KCl, 1.5 mM CaCl2, pH=7.4; 5-HT2A: 50 mM Tris-HCl, 10 mM MgCl2, 1 mM EGTA, pH=7.4), homogenized with a Polytron for 20-30 sec at 12.000 rpm and adjusted to a final concentration of approximately 7.5 μg protein/well (D2, D3) and 15 μg protein/well (5-HT2A), respectively.
(§5) The binding affinity (Ki) of the compounds was determined using radioligand binding. Membranes were incubated in a total volume of 200 μl with a fixed concentration of radioligand (final concentration approximately 0.7 nM [^3H]-spiperone for D2, 0.5 nM [^3H]-spiperone for D3, and 1.1 nM [^3H]-ketanserin for 5-HT2A) and ten concentrations of test compound in ranging between 10 μM-0.1 nM for 1 h at RT. At the end of the incubation, the reaction mixtures were filtered on to unifilter 96-well white microplates with bonded GF/C filters (Packard BioScience, Zürich, Switzerland; preincubated for 1 h in 0.1% polyethylenimine (PEI) in assay buffer) with a Filtermate 196 harvester (Packard BioScience) and washed 3 times with cold assay buffer. The nonspecific binding was determined with equally composed reaction mixtures in the presence of 10 μM unlabeled spiperone. Per well 45 μl of Microscint 40 (Perkin Elmer, Schwerzenbach, Switzerland) was added, plates for sealed, shaken for 20 min and counted for 3 min on a Topcount Microplate Scintillation Counter (Canberra Packard SA, Zürich, Switzerland) with quenching correction.
(§6) The CPM value for each duplicate of a concentration of competing compound was averaged (yl), then the % specific binding was calculated according to the equation (((yl-non-specific)/(total binding-non-specific))×100). Graphs were plotted with the % specific binding using XLfit, a curve fitting program that iteratively plots the data using Levenburg Marquardt algorithm. The single site competition analysis equation used was y=A+((B−A)/(1+((x/C)^D))), where y is the % specific binding, A is the minimum y, B is the maximum y, C is the IC50, x is the log10 of the concentration of the competing compound and D is the slope of the curve (the Hill Coefficient). […] The affinity constant (Ki) was calculated using the Cheng-Prusoff equation Ki=(IC50/1+([L]/Kd), where [L] is the concentration of radioligand and Kd is the dissociation constant of the radioligand at the receptor as determined by the saturation isotherm.

[2] = target: T2, human 5-HT2A serotonin receptor (Homo sapiens, UniProt P28223); experiment: Radioligand binding ([3H]-ketanserin) to cloned human 5-HT2A receptor, HEK-293 EBNA cell membranes; details: 1.1 nM [3H]-ketanserin, 1 h at RT, Cheng-Prusoff
T2 construct: expressed in transfected cells; host or cells: HEK-293 EBNA cells, transient transfection; membrane preparation
T2 sequence (P28223 whole entry): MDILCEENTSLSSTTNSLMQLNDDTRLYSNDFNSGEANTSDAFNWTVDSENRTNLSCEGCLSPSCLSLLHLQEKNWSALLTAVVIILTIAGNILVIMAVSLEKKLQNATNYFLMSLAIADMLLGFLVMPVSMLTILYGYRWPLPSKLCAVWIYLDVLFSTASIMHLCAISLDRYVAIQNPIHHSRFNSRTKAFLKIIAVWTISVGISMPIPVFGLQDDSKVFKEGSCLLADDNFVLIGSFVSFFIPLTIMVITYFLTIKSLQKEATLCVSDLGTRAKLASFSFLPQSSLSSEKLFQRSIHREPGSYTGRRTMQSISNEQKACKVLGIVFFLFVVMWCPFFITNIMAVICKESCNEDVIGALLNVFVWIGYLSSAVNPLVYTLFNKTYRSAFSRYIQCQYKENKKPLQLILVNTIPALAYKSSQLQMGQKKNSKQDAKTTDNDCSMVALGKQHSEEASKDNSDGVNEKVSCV
Experimental: as §1
as §2, with “The” for “HEK-293 EBNA cells were transiently transfected with expression plasmids encoding for the human D2 or D3 dopamine- or for the human 5-HT2A serotonin receptor, respectively. The”
as §3, §4
The binding affinity (Ki) of the compounds was determined using radioligand binding. […] The nonspecific binding was determined with equally composed reaction mixtures in the presence of 10 μM unlabeled spiperone. Per well 45 μl of Microscint 40 (Perkin Elmer, Schwerzenbach, Switzerland) was added, plates for sealed, shaken for 20 min and counted for 3 min on a Topcount Microplate Scintillation Counter (Canberra Packard SA, Zürich, Switzerland) with quenching correction.
as §6

[3] = target: T3, human D2 dopamine receptor (Homo sapiens, UniProt P14416); experiment: Radioligand binding ([3H]-spiperone) to cloned human D2 receptor, HEK-293 EBNA cell membranes; details: 0.7 nM [3H]-spiperone, 1 h at RT, Cheng-Prusoff
T3 construct: expressed in transfected cells; host or cells: HEK-293 EBNA cells, transient transfection; membrane preparation
T3 sequence (P14416 whole entry): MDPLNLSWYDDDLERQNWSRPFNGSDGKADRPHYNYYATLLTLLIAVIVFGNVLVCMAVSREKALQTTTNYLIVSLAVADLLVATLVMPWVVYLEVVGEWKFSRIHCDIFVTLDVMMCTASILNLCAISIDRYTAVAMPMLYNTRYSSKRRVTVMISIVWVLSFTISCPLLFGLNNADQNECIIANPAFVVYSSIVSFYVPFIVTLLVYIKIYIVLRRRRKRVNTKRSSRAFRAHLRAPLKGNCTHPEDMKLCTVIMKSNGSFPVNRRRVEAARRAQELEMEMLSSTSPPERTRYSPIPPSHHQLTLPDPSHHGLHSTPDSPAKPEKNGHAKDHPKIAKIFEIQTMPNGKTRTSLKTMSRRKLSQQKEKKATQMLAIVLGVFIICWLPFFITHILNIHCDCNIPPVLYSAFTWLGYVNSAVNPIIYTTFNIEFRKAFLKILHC
Experimental: as §1, §2, §3, §4, §5, §6

T1 sequence (P35462 whole entry): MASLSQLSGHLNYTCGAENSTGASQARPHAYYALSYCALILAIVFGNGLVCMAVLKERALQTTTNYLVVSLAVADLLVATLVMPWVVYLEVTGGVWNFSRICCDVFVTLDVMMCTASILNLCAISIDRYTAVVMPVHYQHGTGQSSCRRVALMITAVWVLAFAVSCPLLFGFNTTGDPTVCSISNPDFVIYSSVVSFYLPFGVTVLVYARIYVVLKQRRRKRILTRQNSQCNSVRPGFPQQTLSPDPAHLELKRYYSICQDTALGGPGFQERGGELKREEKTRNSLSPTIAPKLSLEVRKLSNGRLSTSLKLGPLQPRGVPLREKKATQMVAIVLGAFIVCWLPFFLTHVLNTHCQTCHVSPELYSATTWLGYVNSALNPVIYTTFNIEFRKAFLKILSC

Row | SMILES | Ki [1] [nM] | Ki [2] [nM] | Ki [3] [nM]
1 | CO[C@H]1CC[C@H](CC(=O)N[C@H]2CC[C@H](CCN3CCC(C(=O)c4ccc(F)cc4)CC3)CC2)CC1 [Example 3, N-trans (4-{2-[4-(4-Fluoro-benzoyl)-piperidin-1-yl]-ethyl}-cyclohexyl)-2-trans (4-methoxy-cyclohexyl)-acetamide] | 24 | 6 | 1280
2 | CO[C@@H]1CC[C@H](CC(=O)N[C@H]2CC[C@H](CCN3CCC(C(=O)c4ccc(F)cc4)CC3)CC2)C1 (racemic) [Example 9, rac-N-trans (4-{2-[4-(4-Fluoro-benzoyl)-piperidin-1-yl]-ethyl}-cyclohexyl)-2-cis (3-methoxy-cyclopentyl)-acetamide] | 42 | 6 | –
3 | O=C(CC1CCC2(CC1)OCCO2)N[C@H]1CC[C@H](CCN2CCC(C(=O)c3ccc(F)cc3)CC2)CC1 [Example 12, 2-(1,4-Dioxa-spiro[4.5]dec-8-yl)-N-trans (4-{2-[4-(4-fluoro-benzoyl)-piperidin-1-yl]-ethyl}-cyclohexyl)-acetamide] | 24 | 6 | 1740
4 | CO[C@@H]1CCC[C@@H](CC(=O)N[C@H]2CC[C@H](CCN3CCC(C(=O)c4ccc(F)cc4)CC3)CC2)C1 (single isomer, unassigned) [Example 16, N-trans (4-{2-[4-(4-Fluoro-benzoyl)-piperidin-1-yl]-ethyl}-cyclohexyl)-2-((1R,3R)-3-methoxy-cyclohexyl)-acetamide or N-trans (4-{2-[4-(4-fluoro-benzoyl)-piperidin-1-yl]-ethyl}-cyclohexyl)-2-((1S,3S)-3-methoxy-cyclohexyl)-acetamide] | 35 | 7 | 1250
5 | CO[C@@H]1CC[C@H](CC(=O)N[C@H]2CC[C@H](CCN3CCC(C(=O)c4ccc(F)cc4)CC3)CC2)C1 (single isomer, unassigned) [Example 10, N-trans (4-{2-[4-(4-Fluoro-benzoyl)-piperidin-1-yl]-ethyl}-cyclohexyl)-2-((1S,3R)-3-methoxy-cyclopentyl)-acetamide or N-trans (4-{2-[4-(4-fluoro-benzoyl)-piperidin-1-yl]-ethyl}-cyclohexyl)-2-((1R,3S)-3-methoxy-cyclopentyl)-acetamide] | 56 | 5 | –
6 | CO[C@@H]1CCC[C@H](CC(=O)N[C@H]2CC[C@H](CCN3CCC(C(=O)c4ccc(F)cc4)CC3)CC2)C1 (racemic) [Example 5, rac-N-trans (4-{2-[4-(4-Fluoro-benzoyl)-piperidin-1-yl]-ethyl}-cyclohexyl)-2-cis (3-methoxy-cyclohexyl)-acetamide] | 45 | 19 | 1190
7 | CCO[C@H]1CC[C@H](CC(=O)N[C@H]2CC[C@H](CCN3CCC(C(=O)c4ccc(F)cc4)CC3)CC2)C1 (racemic) [Example 18, rac-2-(trans-3-Ethoxy-cyclopentyl)-N-trans-(4-{2-[4-(4-fluoro-benzoyl)-piperidin-1-yl]-ethyl}-cyclohexyl)-acetamide] | 42 | 28 | 1940
8 | CO[C@H]1CC[C@@H](CC(=O)N[C@H]2CC[C@H](CCN3CCC(C(=O)c4ccc(F)cc4)CC3)CC2)C1 (single isomer, unassigned) [Example 11, N-trans (4-{2-[4-(4-Fluoro-benzoyl)-piperidin-1-yl]-ethyl}-cyclohexyl)-2-((1R,3S)-3-methoxy-cyclopentyl)-acetamide or N-trans (4-{2-[4-(4-fluoro-benzoyl)-piperidin-1-yl]-ethyl}-cyclohexyl)-2-((1S,3R)-3-methoxy-cyclopentyl)-acetamide] | 62 | 11 | –
9 | COC1CCC(CCC(=O)N[C@H]2CC[C@H](CCN3CCC(C(=O)c4ccc(F)cc4)CC3)CC2)CC1 (mixture of isomers) [Example 29, rac-N-trans (4-{2-[4-(4-Fluoro-benzoyl)-piperidin-1-yl]-ethyl}-cyclohexyl)-3-(4-methoxy-cyclohexyl)-propionamide] | 41 | 7 | 1410
10 | O=C(CC1CC(CO)C1)N[C@H]1CC[C@H](CCN2CCC(C(=O)c3ccc(F)cc3)CC2)CC1 (mixture of isomers) [Example 19, N-trans (4-{2-[4-(4-Fluoro-benzoyl)-piperidin-1-yl]-ethyl}-cyclohexyl)-2-cis/trans (3-hydroxymethyl-cyclobutyl)-acetamide] | 28 | 11 | 1000
11 | CO[C@H]1CC[C@H](CC(=O)N[C@H]2CC[C@H](CCN3CCC(C(=O)c4ccc(F)cc4)CC3)CC2)C1 (racemic) [Example 8, rac-N-trans(4-{2-[4-(4-Fluoro-benzoyl)-piperidin-1-yl]-ethyl}-cyclohexyl)-2-trans (3-methoxy-cyclopentyl)-acetamide] | 23 | 16 | –
12 | CO[C@@H]1CC[C@@H](CC(=O)N[C@H]2CC[C@H](CCN3CCC(C(=O)c4ccc(F)cc4)CC3)CC2)C1 (single isomer, unassigned) [Example 15, N-trans (4-{2-[4-(4-Fluoro-benzoyl)-piperidin-1-yl]-ethyl}-cyclohexyl)-2-((1R,3R)-3-methoxy-cyclopentyl)-acetamide or N-trans (4-{2-[4-(4-fluoro-benzoyl)-piperidin-1-yl]-ethyl}-cyclohexyl)-2-((1S,3S)-3-methoxy-cyclopentyl)-acetamide] | 34 | 16 | –
13 | CO[C@H]1CC[C@H](CC(=O)N[C@H]2CC[C@H](CCN3CCC(C(=O)c4ccc(F)cc4)CC3)CC2)C1 (single isomer, unassigned) [Example 14, N-trans (4-{2-[4-(4-Fluoro-benzoyl)-piperidin-1-yl]-ethyl}-cyclohexyl)-2-((1S,3S)-3-methoxy-cyclopentyl)-acetamide or N-trans (4-{2-[4-(4-fluoro-benzoyl)-piperidin-1-yl]-ethyl}-cyclohexyl)-2-((1R,3R)-3-methoxy-cyclopentyl)-acetamide] | 18 | 7 | –

— US8097637B2, “Benzoyl-piperidine derivatives as dual modulators of the 5-HT2A and D3 receptors” (Hoffmann-La Roche Inc., priority 2007, dated 2012)
